What was measured:
EGFR (Del19/T790M/C797S) = test: Cell degradation HTRF assay, BaF3-DTC cells; type: cell-based; conditions: 16 h treatment; for DC50: HTRF; for DTC Dmax (%): maximum percentage of degradation
Procedure: (§1) Cell Degradation of Example 1-28
(§2) BaF3-LTC (L858R/T790M/C797S) and BaF3-DTC (Del19/T790M/C797S) cells are treated with compounds diluted in 0.2% DMSO cell culture medium and incubate for 16 h, 37° C., 5% CO2. The final concentration of compounds in all assay is start with 10 uM, 4-fold dilution, total 8 doses were included.
(§3) After 16 h treatment, add HTRF lysis buffer to each well; seal the plate and incubate 1 hour at room temperature on a plate shaker; Once the cells are lysed, 16 μL of cell lysate are transferred to a PE 384-well HTRF detection plate; 4 μL of pre-mixed HTRF antibodies are added to each well; Cover the plate with a plate sealer, spin 1000 rpm for 1 min, Incubate overnight at room temperature; Read on BMG PheraStar with HTRF protocol (337 nm-665 nm-620 nm). The inhibition (degradation) percentage of the compound was calculated by the following equation:
(§4) Inhibition percentage of Compound=100−100×(Signal−low control)/(High control−low control), wherein signal=each test compound group.
(§5) High control=Cell group with added DMSO and without compound, indicating microplate readings without EGFR degradation;
(§6) Dmax is the maximum percentage of inhibition (degradation).
(§7) The IC50 (DC50) value of a compound can be obtained by fitting the following equation
(§8) Y=Bottom+(TOP−Bottom)/(1+((C50/X)^hillslope))
(§9) Wherein, X and Y are known values, and IC50, Hillslope, Top and Bottom are the parameters obtained by fitting with software. Y is the inhibition percentage (calculated from the equation), X is the concentration of the compound; IC50 is the concentration of the compound when the 50% inhibition is reached. The smaller the IC50 value is, the stronger the inhibitory ability of the compound is. Vice versa, the higher the IC50 value is, the weaker the ability the inhibitory ability of the compound is; Hillslope represents the slope of the fitted curve, generally around 1*; Bottom represents the minimum value of the curve obtained by data fitting, which is generally 000±20%; Top represents the maximum value of the curve obtained by data fitting, which is generally 100%±20%. The experimental data were fitted by calculating and analyzing with Dotmatics data analysis software. When Dmax<50%, DC50 will be automatically assigned as larger than […].

EGFR (L858R/T790M/C797S) = EGFR (L858R/T790M/C797S) (Homo sapiens, UniProt P00533, C797S/L858R/T790M); test: Cell degradation HTRF assay, BaF3-LTC cells; type: cell-based; parameters: expressed in transfected cells; host or cells: BaF3-LTC; conditions: 16 h treatment; for DC50: HTRF; for Dmax: maximum percentage of degradation
Procedure: as §1, §2, §3, §4, §5, §6, §7, §8, §9

EGFR (L858R/T790M/C797S), sequence (P00533 25-1210 T790M/C797S/L858R): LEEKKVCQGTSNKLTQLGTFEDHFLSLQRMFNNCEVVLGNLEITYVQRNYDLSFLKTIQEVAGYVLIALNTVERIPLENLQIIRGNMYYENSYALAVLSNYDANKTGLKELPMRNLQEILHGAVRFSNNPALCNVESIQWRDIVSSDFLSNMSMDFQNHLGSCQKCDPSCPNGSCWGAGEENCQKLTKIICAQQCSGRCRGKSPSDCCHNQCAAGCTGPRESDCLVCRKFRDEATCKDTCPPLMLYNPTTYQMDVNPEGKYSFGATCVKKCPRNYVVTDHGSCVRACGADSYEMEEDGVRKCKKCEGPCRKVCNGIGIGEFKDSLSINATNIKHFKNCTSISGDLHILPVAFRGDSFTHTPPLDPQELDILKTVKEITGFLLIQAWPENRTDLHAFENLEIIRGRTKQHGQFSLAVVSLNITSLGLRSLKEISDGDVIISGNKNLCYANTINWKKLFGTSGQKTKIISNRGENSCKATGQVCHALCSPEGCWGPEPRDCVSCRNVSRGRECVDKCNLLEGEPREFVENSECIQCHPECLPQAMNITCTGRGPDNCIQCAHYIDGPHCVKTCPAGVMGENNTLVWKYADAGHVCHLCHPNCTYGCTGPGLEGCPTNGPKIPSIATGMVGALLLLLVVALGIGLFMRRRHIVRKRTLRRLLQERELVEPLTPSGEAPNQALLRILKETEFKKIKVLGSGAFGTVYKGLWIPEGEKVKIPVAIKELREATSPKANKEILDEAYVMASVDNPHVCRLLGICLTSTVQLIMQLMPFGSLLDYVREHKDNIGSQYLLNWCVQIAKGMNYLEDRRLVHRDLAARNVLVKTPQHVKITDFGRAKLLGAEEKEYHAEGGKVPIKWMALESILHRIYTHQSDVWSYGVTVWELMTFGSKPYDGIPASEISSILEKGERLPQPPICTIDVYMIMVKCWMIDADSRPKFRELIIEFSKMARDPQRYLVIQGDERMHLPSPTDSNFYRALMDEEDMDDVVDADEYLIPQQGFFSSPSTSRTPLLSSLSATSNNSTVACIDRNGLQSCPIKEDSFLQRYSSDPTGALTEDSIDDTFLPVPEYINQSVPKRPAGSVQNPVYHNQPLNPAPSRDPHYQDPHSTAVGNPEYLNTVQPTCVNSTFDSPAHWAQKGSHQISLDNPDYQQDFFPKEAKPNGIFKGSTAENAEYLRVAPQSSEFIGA

| Structure (SMILES) | DC50 (EGFR (Del19/T790M/C797S)) [nM] | DC50 (EGFR (L858R/T790M/C797S)) [nM] | Dmax (EGFR (L858R/T790M/C797S)) [%] | DTC Dmax (%) (EGFR (Del19/T790M/C797S)) |
| --- | --- | --- | --- | --- |
| CCc1cc(Nc2ncc(Br)c(Nc3cnc4ccccc4c3P(C)(C)=O)n2)c(OC)cc1N1CCC(N2CCN(C[C@H]3CCN(c4ccc5c(c4)CN(C4CCC(=O)NC4=O)C5=O)C3)CC2)CC1 (stereo partly drawn) [Example 4, 3-(5-((R)-3-((4-(1-(4-((5-bromo-4-((4-(dimethylphosphoryl)quinolin-3-yl)amino)pyrimidin-2-yl)amino)-2-ethyl-5-methoxyphenyl)piperidin-4-yl)piperazin-1-yl)methyl)pyrrolidin-1-yl)-1-oxoisoindolin-2-yl)piperidine-2,6-dione] | 3.94 | 7.75 | 90.5 | 91.36 |
| CCc1cc(Nc2ncc(Br)c(Nc3cnc4c(C)cccc4c3P(C)(C)=O)n2)c(OC)cc1N1CCC(N2CCN(CCC3CCN(c4cc(F)c(C5CCC(=O)NC5=O)c(F)c4)CC3)CC2)CC1 (stereo not shown) [Example 8, 3-(4-(4-(2-(4-(1-(4-((5-bromo-4-((4-(dimethylphosphoryl)-8-methylquinolin-3-yl)amino)pyrimidin-2-yl)amino)-2-ethyl-5-methoxyphenyl)piperidin-4-yl)piperazin-1-yl)ethyl)piperidin-1-yl)-2,6-difluorophenyl)piperidine-2,6-dione] | 11.8 | 30.2 | 89.6 | 96.88 |
| CCc1cc(Nc2ncc(Br)c(Nc3cnc4ccccc4c3P(C)(C)=O)n2)c(OC)cc1N1CCC(N2CCN(CCc3cccc4c3cnn4C3CCC(=O)NC3=O)CC2)CC1 (stereo not shown) [Example 12, 3-(4-(2-(4-(1-(4-((5-bromo-4-((4-(dimethylphosphoryl)quinolin-3-yl)amino)pyrimidin-2-yl)amino)-2-ethyl-5-methoxyphenyl)piperidin-4-yl)piperazin-1-yl)ethyl)-1H-indazol-1-yl)piperidine-2,6-dione] | 14.4 | 68.8 | 89.1 | 91.82 |
| CCc1cc(Nc2ncc(Br)c(Nc3cnc4ccccc4c3P(C)(C)=O)n2)c(OC)cc1N1CCC(N2CCN(C(=O)C3CCN(c4ccc5c(c4)n(C)c(=O)n5C4CCC(=O)NC4=O)CC3)CC2)CC1 (stereo not shown) [Example 15, 3-(5-(4-(4-(1-(4-((5-bromo-4-((4-(dimethylphosphoryl)quinolin-3-yl)amino)pyrimidin-2-yl)amino)-2-ethyl-5-methoxyphenyl)piperidin-4-yl)piperazine-1-carbonyl)piperidin-1-yl)-3-methyl-2-oxo-2,3-dihydro-1H-benzo[d]imidazol-1-yl)piperidine-2,6-dione] | 1.23 | 3.23 | 86.4 | 94.57 |
| CCc1cc(Nc2ncc(Br)c(Nc3cnc4ccccc4c3P(C)(C)=O)n2)c(OC)cc1N1CCC(N2CCN(C(=O)C3CN(c4ccc5c(c4)CN(C4CCC(=O)NC4=O)C5=O)C3)CC2)CC1 (stereo not shown) [Example 16, 3-(5-(3-(4-(1-(4-((5-bromo-4-((4-(dimethylphosphoryl)quinolin-3-yl)amino)pyrimidin-2-yl)amino)-2-ethyl-5-methoxyphenyl)piperidin-4-yl)piperazine-1-carbonyl)azetidin-1-yl)-1-oxoisoindolin-2-yl)piperidine-2,6-dione] | 2.14 | 5.05 | 89.7 | 96.98 |
| CCc1cc(Nc2ncc(Br)c(Nc3cnc4ccccc4c3P(C)(C)=O)n2)c(OC)cc1N1CCC(N2CCN(C(=O)C3CCN(c4ccc5c(c4)C(C)(C)C(=O)N5C4CCC(=O)NC4=O)CC3)CC2)CC1 (stereo not shown) [Example 17, 3-(5-(4-(4-(1-(4-((5-bromo-4-((4-(dimethylphosphoryl)quinolin-3-yl)amino)pyrimidin-2-yl)amino)-2-ethyl-5-methoxyphenyl)piperidin-4-yl)piperazine-1-carbonyl)piperidin-1-yl)-3,3-dimethyl-2-oxoindolin-1-yl)piperidine-2,6-dione] | 1.94 | 3.86 | 92.5 | 96.58 |
| CCc1cc(Nc2ncc(Br)c(Nc3cnc4ccccc4c3P(C)(C)=O)n2)c(OC)cc1N1CCC(N2CCN(C(=O)[C@H]3C[C@H](N(C)c4cc(F)c(C5CCC(=O)NC5=O)c(F)c4)C3)CC2)CC1 (stereo partly shown) [Example 18, 3-(4-(((1r,3r)-3-(4-(1-(4-((5-bromo-4-((4-(dimethylphosphoryl)quinolin-3-yl)amino)pyrimidin-2-yl)amino)-2-ethyl-5-methoxyphenyl)piperidin-4-yl)piperazine-1-carbonyl)cyclobutyl)(methyl)amino)-2,6-difluorophenyl)piperidine-2,6-dione] | 3.95 | 14.6 | 90.7 | 97.59 |

The remaining compounds from weak to strong by DC50 (EGFR (Del19/T790M/C797S)), led by results:

| DC50 (EGFR (Del19/T790M/C797S)) [nM] | DC50 (EGFR (L858R/T790M/C797S)) [nM] | Dmax (EGFR (L858R/T790M/C797S)) [%] | Structure (SMILES) | DTC Dmax (%) (EGFR (Del19/T790M/C797S)) |
| --- | --- | --- | --- | --- |
| 186 | 546 | 84.6 | CCc1cc(Nc2ncc(Br)c(Nc3cnc4ccccc4c3P(C)(C)=O)n2)c(OC)cc1N1CCC(N2CCN(CCc3cccc4nn(C5CCC(=O)NC5=O)cc34)CC2)CC1 (stereo not shown) [Example 14, 3-(4-(2-(4-(1-(4-((5-bromo-4-((4-(dimethylphosphoryl)quinolin-3-yl)amino)pyrimidin-2-yl)amino)-2-ethyl-5-methoxyphenyl)piperidin-4-yl)piperazin-1-yl)ethyl)-2H-indazol-2-yl)piperidine-2,6-dione] | 81.73 |
| 24.8 | 219 | 88.4 | CCc1cc(Nc2ncc(Br)c(Nc3cnc4c(C)cccc4c3P(C)(C)=O)n2)c(OC)cc1N1CCC(N2CCN(CCc3cc(F)c(C4CCC(=O)NC4=O)c(F)c3)CC2)CC1 (stereo not shown) [Example 10, 3-(4-(2-(4-(1-(4-((5-bromo-4-((4-(dimethylphosphoryl)-8-methylquinolin-3-yl)amino)pyrimidin-2-yl)amino)-2-ethyl-5-methoxyphenyl)piperidin-4-yl)piperazin-1-yl)ethyl)-2,6-difluorophenyl)piperidine-2,6-dione] | 88.58 |
| 18.5 | 146 | 85 | CCc1cc(Nc2ncc(Br)c(Nc3cnc4ccccc4c3P(C)(C)=O)n2)c(OC)cc1N1CCC(N2CCN(CCc3ccc(C4CCC(=O)NC4=O)c(F)c3)CC2)CC1 (stereo not shown) [Example 2, 3-(4-(2-(4-(1-(4-((5-bromo-4-((4-(dimethylphosphoryl)quinolin-3-yl)amino)pyrimidin-2-yl)amino)-2-ethyl-5-methoxyphenyl)piperidin-4-yl)piperazin-1-yl)ethyl)-2-fluorophenyl)piperidine-2,6-dione] | 86.75 |
| 15.5 | 45.3 | 82.7 | CCc1cc(Nc2ncc(Br)c(Nc3cnc4cccnc4c3P(C)(C)=O)n2)c(OC)cc1N1CCC(N2CCN(CCc3cc(F)c(C4CCC(=O)NC4=O)c(F)c3)CC2)CC1 (stereo not shown) [Example 7, 3-(4-(2-(4-(1-(4-((5-bromo-4-((4-(dimethylphosphoryl)-1,5-naphthyridin-3-yl)amino)pyrimidin-2-yl)amino)-2-ethyl-5-methoxyphenyl)piperidin-4-yl)piperazin-1-yl)ethyl)-2,6-difluorophenyl)piperidine-2,6-dione] | 93.86 |
| 12.7 | 29.3 | 88 | CCc1cc(Nc2ncc(Br)c(Nc3cnc4cccnc4c3P(C)(C)=O)n2)c(OC)cc1N1CCC(N2CCN(CCC3CCN(c4cc(F)c(C5CCC(=O)NC5=O)c(F)c4)CC3)CC2)CC1 (stereo not shown) [Example 9, 3-(4-(4-(2-(4-(1-(4-((5-bromo-4-((4-(dimethylphosphoryl)-1,5-naphthyridin-3-yl)amino)pyrimidin-2-yl)amino)-2-ethyl-5-methoxyphenyl)piperidin-4-yl)piperazin-1-yl)ethyl)piperidin-1-yl)-2,6-difluorophenyl)piperidine-2,6-dione] | 96.14 |
| 10.4 | 25 | 90.7 | CCc1cc(Nc2ncc(Br)c(Nc3cnc4ccccc4c3P(C)(C)=O)n2)c(OC)cc1N1CCC(N2CCN(CCC3CCN(c4cc(F)c(C5CCC(=O)NC5=O)c(F)c4)CC3)CC2)CC1 (stereo not shown) [Example 1, 3-(4-(4-(2-(4-(1-(4-((5-bromo-4-((4-(dimethylphosphoryl)quinolin-3-yl)amino)pyrimidin-2-yl)amino)-2-ethyl-5-methoxyphenyl)piperidin-4-yl)piperazin-1-yl)ethyl)piperidin-1-yl)-2,6-difluorophenyl)piperidine-2,6-dione] | 96.55 |
